{
  "source": "patent US20190209581A1",
  "about": "“DOSAGE REGIMEN FOR TREATMENT OF SOLID TUMORS” (Eli Lilly and Company, priority 2016, published 2019)",
  "key": {"Toxicokinetics in rats": {"test": "Toxicokinetics in rats", "assay_type": "in vivo, rat", "experimental": "A study is carried out to assess the toxicity and toxicokinetics of 4,4,4-Trifluoro-N-[(1S)-2-[[(7S)-5-(2-hydroxyethyl)-6-oxo-7H-pyrido[2,3-d][3]benzazepin-7-yl]amino]-1-methyl-2-oxo-ethyl]butanamide in rats given oral gavage doses of 0, 1.3, or 4.3 mg/kg once daily for 2 weeks or 1, 3, 10, or 30 mg/kg 3 times/week for 2 weeks.\n4,4,4-Trifluoro-N-[(1S)-2-[[(7S)-5-(2-hydroxyethyl)-6-oxo-7H-pyrido[2,3-d][3]benzazepin-7-yl]amino]-1-methyl-2-oxo-ethyl]butanamide is combined with a vehicle comprising 1% carboxymethylcellulose sodium, 0.25% polysorbate 80 and 0.05% Dow Corning® Antifoam 1510-US in purified water. Sprague Dawley CD®/IGS rats (crl:CD(SD)), International Genetic Standardization (IGS) 7-9 week old rats, 3/sex/group, Charles River Laboratories, Inc, are used for the study. Animals are fed ad libitum with 12 hours light, 12 hours dark cycle maintained in ventilated stainless-steel racks at an ambient temperature of 22.2+/[…] and relative humidity of 30% to 70%. The test compound is dosed according to Table 1. The test compound is administered by oral gavage in a volume of 10 mL/kg body weight. The duration of the study for all groups is 14 days.\nAdditional Groups of animals 3/sex/group (Groups 08, 09, and 12) and 3 females/group (Groups 10, 11, and 13) are dosed for toxicokinetic evaluations. For Groups 08, 09, and 10, blood is collected from each animal at the following times relative to dosing on Days 3 and 14: 0 (predose; Day 14 only), 0.5, 1, 2, 4, 8, 24, 30, and 48 hours postdose. For Group 11, blood is collected from each animal at the following times relative to dosing on Day 3: 0.5, 1, 2, 4, 8, 24, 30, and 48 hours postdose. For Group 12, blood is collected from each animal at the following times relative to dosing on Days 1 and 14: 0 (predose; Day 14 only), 0.5, 1, 2, 4, 8, and 24 hours postdose. For Group 13 blood is collected from each animal at the following times relative to dosing on Day 1: 0.5, 1, 2, 4, 8, and 24 hours postdose. Groups 08 through 13 are used for toxicokinetic evaluations. […]"}, "[1]": {"system": "A375 human malignant melanoma cell line", "test": "Tumor growth inhibition, A-375 xenograft", "assay_type": "in vivo", "settings": "A-375 in mice, oral 8 mg/kg, (Mon, Wed, Fri)x4; p NS", "experimental": "To evaluate in vivo efficacy and effect of 4,4,4-Trifluoro-N-[(1S)-2-[[(7S)-5-(2-hydroxyethyl)-6-oxo-7H-pyrido[2,3-d][3]benzazepin-7-yl]amino]-1-methyl-2-oxo-ethyl]butanamide on inhibition of Notch processing pharmacodynamics (PD), several cell lines- and patient-derived xenograft models are used. A2780 is a human ovarian cell line (Sigma-Aldrich, No. 93112519); SW480 is a human colorectal cell line (ATCC No. CCL-228); HCT 116 is a human colorectal cell line (ATCC No. CCL-247); U-87 MG is a human glioblastoma cell line (ATCC No. HTB-14); A375 is a human malignant melanoma cell line (ATCC No. CRL-1619); K-562 is a human chronic myelogenous leukemia (CML) cell line characterized by the presence of a fusion transcript comprised of the Bcr and Abl1 genes (ATCC No. CCL-243); Jurkat; HEL 92.1.7 is a human erythroleukemia cell line (ATCC No. TIB-180). […] Tumor growth and body weight are monitored over time to evaluate efficacy and signs of toxicity. Bidimensional measurements of tumors are performed twice a week and tumor volumes are calculated based on the following formula: (Tumor Volume)=[(L)×(W2)×(Π/6)] where L is mid-axis length and W is mid-axis width. […] The log volume data are analyzed with a two-way repeated measures analysis of variance by time and treatment using the MIXED™ procedures in SAS™ software (version 8.2). […]"}},
  "data": [
    {"compound": "C[C@H](NC(=O)CCC(F)(F)F)C(=O)N[C@@H]1C(=O)N(CCO)c2ncccc2-c2ccccc21", "note": "[Compound 1, 4,4,4-trifluoro-N-[(1S)-2-[[(7S)-5-(2-hydroxyethyl)-6-oxo-7H-pyrido[2,3-d][3]benzazepin-7-yl]amino]-1-methyl-2-oxo-ethyl]butanamide]", "values": [
      {"measurement": "24 hour drug concentrations", "setting": "Toxicokinetics in rats; rat, daily and TIW regimens", "value": "minimal"},
      {"measurement": "Accumulation and differences between sexes in exposure", "setting": "Toxicokinetics in rats; rats, oral gavage", "value": "No accumulation or major differences between sexes"},
      {"measurement": "Exposure (AUC0-24 hr) versus dose", "setting": "Toxicokinetics in rats; rats, oral gavage, following both single and multiple doses", "value": "increased in a roughly linear and dose-proportional manner"},
      {"measurement": "% TGI", "setting": "[1]", "value": "28.47 (NS) %"}
    ]}
  ]
}
